Earlier results in patent publication US10392474B2, “Anionic linear polyglycerol derivatives, a method for manufacturing and applications” (FREIE UNIVERSITAET BERLIN, priority 2015, dated 2019).

Conditions: after subcutaneous administration

## CO[C@H]1O[C@H](COS(=O)(=O)O)[C@@H](O[C@@H]2O[C@@H](C(=O)O)[C@@H](O[C@H]3O[C@H](COS(=O)(=O)O)[C@@H](O[C@@H]4O[C@H](C(=O)O)[C@@H](O[C@H]5O[C@H](COS(=O)(=O)O)[C@@H](O)[C@H](O)[C@H]5NS(=O)(=O)O)[C@H](O)[C@H]4O)[C@H](OS(=O)(=O)O)[C@H]3NS(=O)(=O)O)[C@H](O)[C@H]2OS(=O)(=O)O)[C@H](O)[C@H]1NS(=O)(=O)O [fondaparinux]
  half-life: 17 h
